# Laboratory results taken from article PMC11576293, “New series of 4,6-diaryl pyrimidines: facile synthesis and antiproliferative activity as dual EGFR/VEGFR-2 inhibitors” (Frontiers in Chemistry, 2024).
# Assays:
# Format in all cases: cell-based
# [1] = tested on: four cancer cell lines (A-549, MCF-7, Panc-1, HT-29); experiment: Antiproliferative assay, average over four cancer cell lines; settings: Homo sapiens; average of the four cancer cell lines; read-out: Average IC50 (GI50)
# From the text: Table 2 presents the four cancer cell lines’ median inhibitory concentration (IC50) and GI50 (average IC50) values.
# The IC50 values were derived from dose-response tests. The reported data are derived from at least two independent studies, each comprising three replicates per concentration. See Supplementary Material A1 for more details.
# SR = experiment: NCI-60 single-dose screen; settings: Homo sapiens, single dose 10 µM, '-' = no inhibition, read-out: % Growth Inhibition
# Procedure: (§1) The National Cancer Institute’s Developmental Therapeutic Program (www.dtp.nci.nih.gov) has tested compounds 9–29 (except compounds 21 and 22) against 60 cancer cell lines from nine types (leukemia, lung, colon, CNS, melanoma, ovarian, renal, prostate, and breast cancer) at a single dose (10 μM) ([El-Sherief et al., 2018]). […] The most sensitive cells included leukemia (SR, K-562, and MOLT-4), lung (NCI-H522, […], and EKVX), breast (MCF-7 and T-47D), colon (HCT-15 and HT-29), and ovarian (NCI/ADR-RES).
# (§2) The National Cancer Institute’s Developmental Therapeutic Program (www.dtp.nci.nih.gov) evaluated compounds 9–29 (excluding 21 and 22) against 60 cancer cell lines from nine categories (leukemia, lung, colon, CNS, melanoma, ovarian, renal, prostate, and breast cancer) at a single dose (10 μM) ([El-Sherief et al., 2018]). See Supplementary Material A1 for more details.
# HCC-2998 = experiment: NCI-60 single-dose screen; settings: Homo sapiens, single dose 10 µM, '-' = no inhibition, read-out: % Growth Inhibition
# Procedure: as §1, §2
# TK-10 = experiment: NCI-60 single-dose screen; settings: Homo sapiens, single dose 10 µM, '-' = no inhibition, read-out: % Growth Inhibition
# Procedure: as §1, §2
# SK-OV-3 = experiment: NCI-60 single-dose screen; settings: Homo sapiens, single dose 10 µM, '-' = no inhibition, read-out: % Growth Inhibition
# Procedure: as §1, §2
# NCI/ADR-RES = experiment: NCI-60 single-dose screen; settings: Homo sapiens, single dose 10 µM, '-' = no inhibition, read-out: % Growth Inhibition
# Procedure: as §1, §2
# UACC-257 = experiment: NCI-60 single-dose screen; settings: Homo sapiens, single dose 10 µM, '-' = no inhibition, read-out: % Growth Inhibition
# Procedure: as §1, §2
# UO-31 = experiment: NCI-60 single-dose screen; settings: Homo sapiens, single dose 10 µM, '-' = no inhibition, read-out: % Growth Inhibition
# Procedure: as §1, §2
# SN12C = experiment: NCI-60 single-dose screen; settings: Homo sapiens, single dose 10 µM, '-' = no inhibition, read-out: % Growth Inhibition
# Procedure: as §1, §2
# CAKI-1 = experiment: NCI-60 single-dose screen; settings: Homo sapiens, single dose 10 µM, '-' = no inhibition, read-out: % Growth Inhibition
# Procedure: as §1, §2
# MDA-MB231/ATCC = experiment: NCI-60 single-dose screen; settings: Homo sapiens, MDA-MB-231, single dose 10 µM, '-' = no inhibition, read-out: % Growth Inhibition
# Procedure: as §1, §2
# K-562 = experiment: NCI-60 single-dose screen; settings: Homo sapiens, K562, single dose 10 µM, '-' = no inhibition, read-out: % Growth Inhibition
# Procedure: as §1, §2
# MDA-MB-468 = experiment: NCI-60 single-dose screen; settings: Homo sapiens, single dose 10 µM, '-' = no inhibition, read-out: % Growth Inhibition
# Procedure: as §1, §2
# 786-0 = experiment: NCI-60 single-dose screen; settings: Homo sapiens, single dose 10 µM, '-' = no inhibition, read-out: % Growth Inhibition
# Procedure: as §1, §2
# HT29 = experiment: NCI-60 single-dose screen; settings: Homo sapiens, HT-29, single dose 10 µM, '-' = no inhibition, read-out: % Growth Inhibition
# Procedure: as §1, §2
# IGROV1 = experiment: NCI-60 single-dose screen; settings: Homo sapiens, IGROV-1, single dose 10 µM, '-' = no inhibition, read-out: % Growth Inhibition
# Procedure: as §1, §2
# OVCAR-5 = experiment: NCI-60 single-dose screen; settings: Homo sapiens, single dose 10 µM, '-' = no inhibition, read-out: % Growth Inhibition
# Procedure: as §1, §2
# RPMI-8226 = experiment: NCI-60 single-dose screen; settings: Homo sapiens, single dose 10 µM, '-' = no inhibition, read-out: % Growth Inhibition
# Procedure: as §1, §2
# SK-MEL-5 = experiment: NCI-60 single-dose screen; settings: Homo sapiens, single dose 10 µM, '-' = no inhibition, read-out: % Growth Inhibition
# Procedure: as §1, §2
# OVCAR-8 = experiment: NCI-60 single-dose screen; settings: Homo sapiens, single dose 10 µM, '-' = no inhibition, read-out: % Growth Inhibition
# Procedure: as §1, §2
# RXF 393 = experiment: NCI-60 single-dose screen; settings: Homo sapiens, single dose 10 µM, '-' = no inhibition, read-out: % Growth Inhibition
# Procedure: as §1, §2
# BT-549 = experiment: NCI-60 single-dose screen; settings: Homo sapiens, single dose 10 µM, '-' = no inhibition, read-out: % Growth Inhibition
# Procedure: as §1, §2
# NCI-H522 = experiment: NCI-60 single-dose screen; settings: Homo sapiens, single dose 10 µM, '-' = no inhibition, read-out: % Growth Inhibition
# Procedure: as §1, §2
# SNB-19 = experiment: NCI-60 single-dose screen; settings: Homo sapiens, single dose 10 µM, '-' = no inhibition, read-out: % Growth Inhibition
# Procedure: as §1, §2
# HOP-92 = experiment: NCI-60 single-dose screen; settings: Homo sapiens, single dose 10 µM, '-' = no inhibition, read-out: % Growth Inhibition
# Procedure: as §1, §2
# SF-268 = experiment: NCI-60 single-dose screen; settings: Homo sapiens, single dose 10 µM, '-' = no inhibition, read-out: % Growth Inhibition
# Procedure: as §1, §2
# COLO 205 = experiment: NCI-60 single-dose screen; settings: Homo sapiens, single dose 10 µM, '-' = no inhibition, read-out: % Growth Inhibition
# Procedure: as §1, §2
# HS 578T = experiment: NCI-60 single-dose screen; settings: Homo sapiens, single dose 10 µM, '-' = no inhibition, read-out: % Growth Inhibition
# Procedure: as §1, §2
# HCT-116 = experiment: NCI-60 single-dose screen; settings: Homo sapiens, single dose 10 µM, '-' = no inhibition, read-out: % Growth Inhibition
# Procedure: as §1, §2
# UACC-62 = experiment: NCI-60 single-dose screen; settings: Homo sapiens, single dose 10 µM, '-' = no inhibition, read-out: % Growth Inhibition
# Procedure: as §1, §2
# OVCAR-4 = experiment: NCI-60 single-dose screen; settings: Homo sapiens, single dose 10 µM, '-' = no inhibition, read-out: % Growth Inhibition
# Procedure: as §1, §2
# DU-145 = experiment: NCI-60 single-dose screen; settings: Homo sapiens, single dose 10 µM, '-' = no inhibition, read-out: % Growth Inhibition
# Procedure: as §1, §2
# SF-539 = experiment: NCI-60 single-dose screen; settings: Homo sapiens, single dose 10 µM, '-' = no inhibition, read-out: % Growth Inhibition
# Procedure: as §1, §2
# NCI-H460 = experiment: NCI-60 single-dose screen; settings: Homo sapiens, single dose 10 µM, '-' = no inhibition, read-out: % Growth Inhibition
# Procedure: as §1, §2
# U251 = experiment: NCI-60 single-dose screen; settings: Homo sapiens, U-251, single dose 10 µM, '-' = no inhibition, read-out: % Growth Inhibition
# Procedure: as §1, §2
# SK-MEL-28 = experiment: NCI-60 single-dose screen; settings: Homo sapiens, single dose 10 µM, '-' = no inhibition, read-out: % Growth Inhibition
# Procedure: as §1, §2
# ACHN 1 = experiment: NCI-60 single-dose screen; settings: Homo sapiens, single dose 10 µM, '-' = no inhibition, read-out: % Growth Inhibition
# Procedure: as §1, §2
# SK-MEL-2 = experiment: NCI-60 single-dose screen; settings: Homo sapiens, single dose 10 µM, '-' = no inhibition, read-out: % Growth Inhibition
# Procedure: as §1, §2
# OVCAR-3 = experiment: NCI-60 single-dose screen; settings: Homo sapiens, single dose 10 µM, '-' = no inhibition, read-out: % Growth Inhibition
# Procedure: as §1, §2
# A549/ATCC = experiment: NCI-60 single-dose screen; settings: Homo sapiens, single dose 10 µM, '-' = no inhibition, read-out: % Growth Inhibition
# Procedure: as §1, §2
# NCI-H23 = experiment: NCI-60 single-dose screen; settings: Homo sapiens, single dose 10 µM, '-' = no inhibition, read-out: % Growth Inhibition
# Procedure: as §1, §2
# HL-60(TB) = experiment: NCI-60 single-dose screen; settings: Homo sapiens, single dose 10 µM, '-' = no inhibition, read-out: % Growth Inhibition
# Procedure: as §1, §2
# PC-3 = experiment: NCI-60 single-dose screen; settings: Homo sapiens, single dose 10 µM, '-' = no inhibition, read-out: % Growth Inhibition
# Procedure: as §1, §2
# NCI-H322M = experiment: NCI-60 single-dose screen; settings: Homo sapiens, single dose 10 µM, '-' = no inhibition, read-out: % Growth Inhibition
# Procedure: as §1, §2
structure (smiles),measurement,setting,value
"COc1ccc(-c2cc(-c3ccc(Cl)cc3)nc(SC(C)C)n2)cc1 [Compound 12, 4-(4-Chlorophenyl)-2-(isopropylthio)-6-(4-methoxyphenyl)pyrimidine]",IC50,[1],36 nM
same,inhibition at 10 µM,SR,47.1%
same,inhibition at 10 µM,HCC-2998,1.06%
same,inhibition at 10 µM,TK-10,< 0%
same,inhibition at 10 µM,SK-OV-3,< 0%
same,inhibition at 10 µM,NCI/ADR-RES,11.2%
same,inhibition at 10 µM,UACC-257,4.1%
same,inhibition at 10 µM,UO-31,15.7%
same,inhibition at 10 µM,SN12C,19.8%
same,inhibition at 10 µM,CAKI-1,14.1%
same,inhibition at 10 µM,MDA-MB231/ATCC,4.87%
same,inhibition at 10 µM,K-562,30.9%
same,inhibition at 10 µM,MDA-MB-468,35.1%
same,inhibition at 10 µM,786-0,7.48%
same,inhibition at 10 µM,HT29,29.2%
same,inhibition at 10 µM,IGROV1,< 0%
same,inhibition at 10 µM,OVCAR-5,< 0%
same,inhibition at 10 µM,RPMI-8226,26.7%
same,inhibition at 10 µM,SK-MEL-5,17.9%
same,inhibition at 10 µM,OVCAR-8,11.3%
same,inhibition at 10 µM,RXF 393,26.4%
same,inhibition at 10 µM,BT-549,2.74%
same,inhibition at 10 µM,NCI-H522,21.6%
same,inhibition at 10 µM,SNB-19,1.49%
same,inhibition at 10 µM,HOP-92,< 0%
same,inhibition at 10 µM,SF-268,< 0%
same,inhibition at 10 µM,COLO 205,< 0%
same,inhibition at 10 µM,HS 578T,< 0%
same,inhibition at 10 µM,HCT-116,19.6%
same,inhibition at 10 µM,UACC-62,19.1%
same,inhibition at 10 µM,OVCAR-4,11.8%
same,inhibition at 10 µM,DU-145,14.7%
same,inhibition at 10 µM,SF-539,6.88%
same,inhibition at 10 µM,NCI-H460,7.21%
same,inhibition at 10 µM,U251,7.59%
same,inhibition at 10 µM,SK-MEL-28,< 0%
same,inhibition at 10 µM,ACHN 1,< 0%
same,inhibition at 10 µM,SK-MEL-2,19.5%
same,inhibition at 10 µM,OVCAR-3,< 0%
same,inhibition at 10 µM,A549/ATCC,15.9%
same,inhibition at 10 µM,NCI-H23,10.7%
same,inhibition at 10 µM,HL-60(TB),32.6%
same,inhibition at 10 µM,PC-3,2.88%
same,inhibition at 10 µM,NCI-H322M,4.22%
"C=CCSc1nc(-c2ccc(Cl)cc2)cc(-c2ccc(OC)cc2)n1 [Compound 13, 2-(Allylthio)-4-(4-chlorophenyl)-6-(4-methoxyphenyl)pyrimidine]",IC50,[1],66 nM
same,inhibition at 10 µM,SR,19.9%
same,inhibition at 10 µM,HCC-2998,< 0%
same,inhibition at 10 µM,TK-10,< 0%
same,inhibition at 10 µM,SK-OV-3,< 0%
same,inhibition at 10 µM,NCI/ADR-RES,6.28%
same,inhibition at 10 µM,UACC-257,< 0%
same,inhibition at 10 µM,UO-31,18.9%
same,inhibition at 10 µM,SN12C,6.62%
same,inhibition at 10 µM,CAKI-1,14.8%
same,inhibition at 10 µM,MDA-MB231/ATCC,< 0%
same,inhibition at 10 µM,K-562,15.6%
same,inhibition at 10 µM,MDA-MB-468,16.2%
same,inhibition at 10 µM,786-0,3.01%
same,inhibition at 10 µM,HT29,17.2%
same,inhibition at 10 µM,IGROV1,< 0%
same,inhibition at 10 µM,OVCAR-5,< 0%
same,inhibition at 10 µM,RPMI-8226,4.91%
same,inhibition at 10 µM,SK-MEL-5,1%
same,inhibition at 10 µM,OVCAR-8,< 0%
same,inhibition at 10 µM,RXF 393,0.35%
same,inhibition at 10 µM,BT-549,< 0%
same,inhibition at 10 µM,NCI-H522,10.2%
same,inhibition at 10 µM,SNB-19,6.79%
same,inhibition at 10 µM,HOP-92,< 0%
same,inhibition at 10 µM,SF-268,< 0%
same,inhibition at 10 µM,COLO 205,< 0%
same,inhibition at 10 µM,HS 578T,< 0%
same,inhibition at 10 µM,HCT-116,5.47%
same,inhibition at 10 µM,UACC-62,26.2%
same,inhibition at 10 µM,OVCAR-4,12.1%
same,inhibition at 10 µM,DU-145,1.02%
same,inhibition at 10 µM,SF-539,< 0%
same,inhibition at 10 µM,NCI-H460,0.1%
same,inhibition at 10 µM,U251,< 0%
same,inhibition at 10 µM,SK-MEL-28,< 0%
same,inhibition at 10 µM,ACHN 1,< 0%
same,inhibition at 10 µM,SK-MEL-2,4.96%
same,inhibition at 10 µM,OVCAR-3,< 0%
same,inhibition at 10 µM,A549/ATCC,< 0%
same,inhibition at 10 µM,NCI-H23,3.36%
same,inhibition at 10 µM,HL-60(TB),26.8%
same,inhibition at 10 µM,PC-3,1.15%
same,inhibition at 10 µM,NCI-H322M,0.59%
